Read-outs that look alike come from different tables or passages of the source.
Experiments:
Coxsackie virus B4 [1] = test: microbe, parasite or virus in culture; format: cell-based; settings: Enterovirus B, B4, Vero
Yellow Fever virus (17D) = test: microbe, parasite or virus in culture; format: cell-based; settings: Vero
Sindbis virus = test: microbe, parasite or virus in culture; format: cell-based; settings: Vero
Reovirus-1 = test: organism not typed; format: cell-based; settings: Vero
Vero cells = settings: African green monkey
in vitro [2] = settings: African green monkey
[3] = system: Zika virus (strain MR766); test: microbe, parasite or virus in culture; format: cell-based; settings: Vero
Punta Toro virus = test: microbe, parasite or virus in culture; format: cell-based; settings: Vero
[4] = system: Respiratory syncytial virus; test: microbe, parasite or virus in culture; format: cell-based; settings: human respiratory syncytial virus, HeLa, read-out: Antiviral EC50 Respiratory syncytial virus, Visual CPE score
[5] = system: Vesicular stomatitis virus; test: microbe, parasite or virus in culture; format: cell-based; settings: HeLa, read-out: Antiviral EC50 Vesicular stomatitis virus, Visual CPE score
Coxsackie virus B4 [6] = test: microbe, parasite or virus in culture; format: cell-based; settings: Enterovirus B, B4, HeLa, read-out: Antiviral EC50 Coxsackie virus B4, Visual CPE score
in vitro [7] = settings: human
[8] = system: herpes simplex virus type 1 (HSV-1); test: microbe, parasite or virus in culture; format: cell-based; settings: Human alphaherpesvirus 1, HEL, read-out: Antiviral EC50 HSV‐1
vaccinia virus = test: microbe, parasite or virus in culture; format: cell-based; settings: Orthopoxvirus vaccinia, HEL, read-out: Antiviral EC50 Vaccinia
[9] = system: herpes simplex virus type 2 (HSV-2); test: microbe, parasite or virus in culture; format: cell-based; settings: Human alphaherpesvirus 2, HEL, read-out: Antiviral EC50 HSV‐2
in vitro [10] = settings: human; remark: listed apart in the source
[11] = system: human adenovirus type 2 (AdV-2); test: microbe, parasite or virus in culture; format: cell-based; settings: Human mastadenovirus C, HEL, read-out: Antiviral EC50 AdV‐2
[12] = system: thymidine-kinase deficient (TK-) mutant of HSV-1; test: microbe, parasite or virus in culture; format: cell-based, herpes simplex virus type 1; settings: Human alphaherpesvirus 1, HEL, read-out: Antiviral EC50 HSV‐1/TK−
[13] = system: influenza A/H3N2 A/Victoria/361/11; test: microbe, parasite or virus in culture; format: cell-based, influenza A virus; settings: Influenza A virus, H3N2, MDCK
MDCK cells = settings: dog
[14] = system: influenza A/H1N1 A/Ned/378/05; test: microbe, parasite or virus in culture; format: cell-based, influenza A virus; settings: Influenza A virus, H1N1, MDCK
in vitro [15] = settings: dog
[16] = system: influenza B virus B/Ned/537/05; test: CPE reduction assay for influenza virus in MDCK cells, influenza B; format: cell-based; settings: Influenza B virus, MDCK cells
Description: The CPE reduction assay for influenza virus was described in full detail in previous publications.41 The virus strains were: A/PR/8/34 (A/H1 N1); A/Virginia/ATCC3/2009 (A/H1 N1pdm); A/HK/7/87 (A/H3 N2); B/Ned/537/05; and B/HK/5/72. On day 0, Madin‐Darby canine kidney (MDCK) cells in 96‐well plates were infected with influenza virus at a multiplicity of infection (MOI) of 0.0004 plaque forming units (PFU) per cell. After three days incubation at 35 °C, virus‐induced CPE and compound cytotoxicity were scored by microscopy, after which the data were confirmed by formazan‐based MTS cell viability assay (CellTiter 96® AQueous One Solution Cell Proliferation Assay from Promega). The antiviral effect was expressed as the compound concentration producing 50 % inhibition of the virus‐induced CPE (EC50). Compound cytotoxicity was expressed as the compound concentration causing minimal changes in cell morphology (MCC), and 50 % cytotoxic concentration (CC50) based on MTS assay.42

COc1c(C)c2c(c(O)c1C/C=C(\C)CCC(=O)O)C(=O)OC2 [Mycophenolic acid]
EC50 (Coxsackie virus B4 [1]; read-out: Antiviral EC50 Coxsackie virus B4, MTS): > 100 µM
EC50 (Coxsackie virus B4 [1]; read-out: Antiviral EC50 Coxsackie virus B4, Visual CPE score): > 100 µM
EC50 (Yellow Fever virus (17D); read-out: Antiviral EC50 Yellow Fever virus, MTS): 1.4 µM
EC50 (Yellow Fever virus (17D); read-out: Antiviral EC50 Yellow Fever virus, Visual CPE score): > 100 µM
EC50 (Sindbis virus; read-out: Antiviral EC50 Sindbis virus, MTS): 4 µM
EC50 (Sindbis virus; read-out: Antiviral EC50 Sindbis virus, Visual CPE score): 5.7 µM
EC50 (Reovirus-1; read-out: Antiviral EC50 Reovirus-1, MTS): 4 µM
EC50 (Reovirus-1; read-out: Antiviral EC50 Reovirus-1, Visual CPE score): 3.3 µM
Cytotoxicity MCC (Vero cells): > 100
CC50 (in vitro [2]): > 100 µM
EC50 ([3]; read-out: Antiviral EC50 Zika virus, MTS): 1.5 µM
EC50 ([3]; read-out: Antiviral EC50 Zika virus, Visual CPE score): 0.8 µM
EC50 (Punta Toro virus; read-out: Antiviral EC50 Punta Toro virus, MTS): 10.6 µM
EC50 (Punta Toro virus; read-out: Antiviral EC50 Punta Toro virus, Visual CPE score): > 100 µM

NC(=O)c1ncn([C@@H]2O[C@H](CO)[C@@H](O)[C@H]2O)n1 [Ribavirin]
EC50 [4]: 5 µM
EC50 [5]: 87 µM
EC50 (Coxsackie virus B4 [6]): 126 µM
CC50 (in vitro [7]): > 250 µM

Nc1nc2c(ncn2COCCO)c(=O)[nH]1 [acyclovir]
EC50 [8]: 2.4 µM
EC50 (vaccinia virus): > 250 µM
EC50 [9]: 0.05 µM
CC50 (in vitro [10]): > 250 µM

Cc1cn([C@H]2C[C@H](F)[C@@H](CO)O2)c(=O)[nH]c1=O [alovudine]
EC50 [11]: 5.9 µM
CC50 (in vitro [10]): > 250 µM

Nc1ccn(C[C@@H](CO)OCP(=O)(O)O)c(=O)n1 [cidofovir]
EC50 [8]: 2.4 µM
EC50 (vaccinia virus): 10 µM
EC50 [9]: 1 µM
EC50 [12]: 4.7 µM
EC50 [11]: 6.4 µM
CC50 (in vitro [10]): > 250 µM

CC(=O)N[C@H]1[C@H]([C@H](O)[C@H](O)CO)OC(C(=O)O)=C[C@@H]1N=C(N)N [zanamivir]
EC50 ([13]; read-out: Antiviral EC50 A/H3N2 CPE): 20 µM
EC50 ([13]; read-out: Antiviral EC50 A/H3N2 MTS): 9 µM
Cytotoxicity MCC (minimum cytotoxic concentration) (MDCK cells): >100 µM
EC50 ([14]; read-out: Antiviral EC50 A/H1N1 CPE): 1.5 µM
EC50 ([14]; read-out: Antiviral EC50 A/H1N1 MTS): 3.1 µM
CC50 (in vitro [15]): > 100 µM
EC50 ([16]; B/Ned/537/05, MTS assay, read-out: Antiviral EC50 Influenza B MTS): 1.7 µM
EC50 ([16]; B/Ned/537/05, visual CPE scoring, read-out: Antiviral EC50 Influenza B CPE): 2 µM
